Laboratory results taken from patent publication US10172914B2, “Combination” (Genesis Pharma SA, priority 2015, dated 2019).

Assays:
[1] = tested on: Mouse Model of Acute Myocardial Infarction Injury; assay: Mouse ischemia-reperfusion model, mono-, double and triple therapies, infarct size (Example 5); format: in vivo, C57BL/6 mice; conditions: for IF/AAR: mean ± SEM
Method: The test/control articles were given intravenously, under general anaesthesia, in order to mimic the expected route of administration in the clinical setting of acute myocardial infarction and primary percutaneous coronary intervention.
The study followed a predetermined placebo controlled design. […] In all cases, treatments (intravenous bolus administration of saline or test articles or their combinations) were performed 20 min after the onset of ischemia (10 min before the initiation of reperfusion). The experiments were terminated 2 h post-reperfusion (end of study); irreversible myocardial injury (infarct size by histomorphometry) at this time-point was evaluated, and was the primary-end-point of the study.
Mice were anaesthetized by intraperitoneal injection (0.01 ml/Kg) with a combination of ketamine, xylazine and atropine (final doses of ketamine, xylazine and atropine were 100, 20 and 0.6 mg/Kg, respectively). Anaesthetic depth was evaluated by loss of pedal reflex to toe-pinch stimulus and breathing rate. A tracheotomy was performed for artificial respiration at 120-150 breaths/min and positive end-expiratory pressure 2.0 (0.2 ml of total tidal volume; Flexivent rodent ventilator, Scireq, Montreal, ON, Canada). A thoracotomy was then performed between the fourth and fifth ribs and the pericardium carefully retracted to visualize the left anterior descending (LAD), which was ligated using an 8-0 prolene monofilament polypropylene suture placed 1 mm below the tip of the left auricle. […] After the ischemic period, the ligature was released allowing reperfusion of myocardium. Throughout experiments, body temperature was maintained at 37±0.5° C. by way of a heating pad and monitored via a thermocouple inserted rectally.
After reperfusion, animals were sacrificed with an intraperitoneal injection of the ketamine (200 mg/Kg) and xylazine (50 mg/Kg) anesthetic mixture (0.02 ml/Kg) hearts were rapidly excited from mice and directly cannulated and washed with 2.5 ml of saline heparin 1% for blood removal. Five ml of 1% TTC phosphate buffer 37° C. were infused into the coronary circulation; the tissue was incubated for 5 min in the same buffer. Evans Blue 1% diluted in distilled water (2.5 ml) was the infused into the heart. Hearts were kept at −20° C. for 24 hours and then sliced in 1 mm sections parallel to the atrioventricular groove, and then fixed in 4% formalin overnight. […] The areas of myocardial tissue at risk and infarcted were automatically transformed into volumes. Infarct and risk area volumes were expressed in cm^3. For each slide, the AAR was expressed as a percentage of the LV area (AAR/LV), and the IF was expressed as a percentage of the AAR (IF/AAR). In all cases, quantitative histomorphometry was performed by personnel blinded to the treatment assignment/study-design.
All results are presented as mean+SEM. Comparisons of numeric variables among the groups were analyzed using an one-way analysis of variance (ANOVA) model with Bonferroni correction and with Tukey post hoc analysis. […] A calculated P-value of less than 0.05 was considered to be statistically significant.

[2] = tested on: Rabbit Model of Acute Myocardial Infarction Injury; assay: Rabbit ischemia-reperfusion model, exenatide and potassium canrenoate, infarct size (Example 3); format: in vivo, New Zealand White rabbits; conditions: for IF/AAR: mean ± SEM, exenatide 0.15 μg/Kg and/or P. canrenoate 1 mg/Kg IV bolus 15 min before reperfusion, 30 min ischemia, 180 min reperfusion
[3] = exenatide 0.05 μg/Kg, cyclosporine 0.15 mg/Kg, P. canrenoate 1 mg/Kg, alone or in double/triple combination
[4] = monotherapy doses: exenatide 0.001 μg/Kg, cyclosporine 0.001 mg/Kg, P. canrenoate 0.03 mg/Kg
[5] = monotherapy doses: exenatide 0.005 μg/Kg, cyclosporine 0.01 mg/Kg, P. canrenoate 0.3 mg/Kg
[6] = monotherapy doses: exenatide 0.15 μg/Kg, cyclosporine 0.5 mg/Kg, P. canrenoate 10 mg/Kg

C[C@]12CCC(=O)C=C1C=C[C@@H]1[C@@H]2CC[C@@]2(C)[C@H]1CC[C@@]2(O)CCC(=O)[O-].[K+] [P. CANRENOATE, potassium 3-[(8R,9S,10R,13S,14S,17R)-17-hydroxy-10,13-dimethyl-3-oxo-2,8,9,11,12,14,15,16 octahydro-1H-cyclopenta[a]phenanthren-17-yl]propanoate]
reduction of infarct size / extent of infarct ([1]; compared with the control group, exenatide 0.05 μg/kg, cyclosporine 0.15 mg/kg, potassium canrenoate 1 mg/kg, alone or combined): 30% | reduction of infarct size ([1]; compared with the control group, potassium canrenoate 10 mg/kg monotherapy): 58.9% | Different (%) in IF/AAR from Control [1, 3]: −30% | IF/AAR [1, 3]: 33.2 ± 2.4% | IF/AAR ([1]; exenatide 0.05 μg/Kg, cyclosporine 0.15 mg/Kg, P. canrenoate 1 mg/Kg, alone or in double/triple combination, listed as potassium canrenoate): 33.2±2.4% | IF/AAR [1, 4]: 46 ± 2.5% | IF/AAR [1, 5]: 44 ± 3.2% | IF/AAR [1, 6]: 19.5 ± 2.5% | IF/AAR ([1]; monotherapy doses: exenatide 0.15 μg/Kg, cyclosporine 0.5 mg/Kg, P. canrenoate 10 mg/Kg, listed as potassium canrenoate): 19.5±2.5% | Different (%) in IF/AAR from Control [1, 4]: −3% | Different (%) in IF/AAR from Control [1, 5]: −7.2% | Different (%) in IF/AAR from Control [1, 6]: −58.9% | reduction of the extent of infarct ([2]; compared with the control group, exenatide 0.15 μg/Kg and/or potassium canrenoate 1 mg/Kg): 30.5% | Different (%) in IF/AAR from Control ([2]; exenatide 0.15 μg/Kg and/or P. canrenoate 1 mg/Kg): −30.5% | IF/AAR [2]: 34.36 ± 2.83% | IF/AAR ([2]; listed as potassium canrenoate): 34.36±2.83%
